Experimental data as given in US9695155B2, “Herbicidal substituted pyrimidinyloxy benzene compounds” (E. I. DU PONT DE NEMOURS AND COMPANY, priority 2013, dated 2017).

Assays:
[1] = system: deadnettle; experiment: Test D preemergence; assay type: in vivo, Lamium amplexicaule; conditions: Lamium amplexicaule, pre-emergence
In short: (§1)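 Visual rating vs untreated controls, 0 = no effect, 100 = complete control, taken 7–21 d after treatment. Pre: silt loam soil. Post: potting medium, plants 2–18 cm, 1–4 leaf. Formulation: non-phytotoxic solvent mix + surfactant.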

[2] = system: lambsquarters; experiment: Test D postemergence; assay type: in vivo, Chenopodium album; conditions: Chenopodium album, post-emergence
In short: as §1

[3] = system: wild mustard; experiment: Test D preemergence; assay type: in vivo, Sinapis arvensis; conditions: Brassica, pre-emergence
In short: as §1

[4] = system: chickweed; experiment: Test D postemergence; assay type: in vivo, Stellaria media; conditions: Stellaria media, post-emergence
In short: as §1

[5] = system: ragweed; experiment: Test F preemergence; assay type: in vivo, Ambrosia elatior; conditions: 21 days, scale 0 to 100
In short: (§2)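 Greenhouse test: soil (loam with sand) seeded, then sprayed preemergence using a surfactant-containing non-phytotoxic solvent formulation. At day 21, response judged visually relative to controls, where 0 means no effect and 100 means full control.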

[6] = system: field poppy; experiment: Test D postemergence; assay type: in vivo, Papaver rhoeas; conditions: Papaver rhoeas, post-emergence
In short: as §1

[7] = system: wild buckwheat; experiment: Test D postemergence; assay type: in vivo, Polygonum convolvulus; conditions: Fallopia convolvulus, post-emergence, Postemergence, scale 0 to 100 (0 no effect, 100 complete control), read-out: Plant response rating, Buckwheat, Wild
In short: as §1

[8] = system: guineagrass; experiment: Test F preemergence; assay type: in vivo, Panicum maximum; conditions: 21 days, scale 0 to 100
Excerpt: Seeds of plant species selected from bermudagrass (Cynodon dactylon), surinam grass (Brachiaria decumbens), large (Lg) crabgrass (Digitaria sanguinalis), crabgrass, naked (naked crabgrass, Digitaria nuda), foxtail, green (green foxtail, Setaria viridis), johnsongrass (Sorghum halepense), kochia (Kochia scoparia), morningglory (pitted morningglory, Ipomoea lacunosa), nutsedge, purple (purple nutsedge, Cyperus rotundus), ragweed (common ragweed, Ambrosia elatior), mustard, black (black mustard, Brassica nigra), guineagrass (Panicum maximum), dallisgrass (Paspalum dilatatum), barnyardgrass (Echinochloa crus-galli), sandbur (southern sandbur, Cenchrus echinatus), sowthistle (common sowthistle, Sonchus oleraceous), Italian ryegrass (Lolium multiflorum), signalgrass (broadleaf signalgrass, Brachiaria platyphylla), dayflower (Virginia (VA) dayflower, Commelina virginica), bluegrass (annual bluegrass, Poa annua), quackgrass (Elytrigia repens), mallow (common mallow, Malva sylvestris), buckwheat, wild (wild buckwheat, Polygonum convolvulus), leafy spurge (Euphorbia esula), chickweed (common chickweed, Stellaria media), wild poinsettia (Euphorbia heterophylla), and pigweed (Amaranthus retroflexus) were planted into a blend of loam soil and sand and treated preemergence with test chemicals formulated in a non-phytotoxic solvent mixture which included a surfactant.
Treated plants and controls were maintained in a greenhouse for 21 days, after which time all species were compared to controls and visually evaluated. Plant response ratings, summarized in Table F, are based on a scale of 0 to 100 where 0 is no effect and 100 is complete control. A dash (-) response means no test result.

[9] = system: winter wheat; experiment: Test D preemergence; assay type: in vivo, Triticum aestivum; conditions: Triticum aestivum, pre-emergence
In short: as §1

[10] = system: spring wheat; experiment: Test D preemergence; assay type: in vivo, Triticum aestivum; conditions: Triticum aestivum, pre-emergence
In short: as §1

[11] = system: bluegrass; experiment: Test D preemergence; assay type: in vivo, Poa annua; conditions: Poa annua, pre-emergence
In short: as §1

[12] = system: pigweed; experiment: Test D postemergence; assay type: in vivo, Amaranthus retroflexus; conditions: Amaranthus retroflexus, post-emergence
In short: as §1

[13] = system: quackgrass; experiment: Test F preemergence; assay type: in vivo, Elytrigia repens; conditions: 21 days, scale 0 to 100
In short: as §2

[14] = system: windgrass; experiment: Test D postemergence; assay type: in vivo, Apera spica-venti; conditions: Apera spica-venti, post-emergence
In short: as §1

[15] = system: surinam grass; experiment: Test F preemergence; assay type: in vivo, Brachiaria decumbens; conditions: 21 days, scale 0 to 100
In short: as §2

[16] = system: bermudagrass; experiment: Test F preemergence; assay type: in vivo, Cynodon dactylon; conditions: 21 days, scale 0 to 100
In short: as §2

## N#Cc1cccc(Oc2ncc(Cl)cn2)c1-n1cc(OCC(F)(F)F)cn1 [Compound 274, 3-[(5-chloro-2-pyrimidinyl)oxy]-2-[4-(2,2,2-trifluoroethoxy)-1H-pyrazol-1-yl]benzonitrile]
[1]; 16 g ai/ha, scale 0 (no effect) to 100 (complete control), read-out: Plant response rating, Deadnettle
  pest or weed control at 16 g/ha: 55%
[1]; 31 g ai/ha, scale 0-100, read-out: Plant response rating, Deadnettle
  pest or weed control at 31 g/ha: 100%
[1]; 62 g ai/ha, scale 0-100, read-out: Plant response rating, Deadnettle
  pest or weed control at 62 g/ha: 100%
[1]; 125 g ai/ha, scale 0-100, read-out: Plant response rating, Deadnettle
  pest or weed control at 125 g/ha: 100%
[2]; 16 g ai/ha, scale 0-100, read-out: Plant response rating, Lambsquarters
  pest or weed control at 16 g/ha: 75%
[2]; 31 g ai/ha, scale 0 to 100 (0 no effect, 100 complete control), read-out: Plant response rating, Lambsquarters
  pest or weed control at 31 g/ha: 80%
[2]; 62 g ai/ha, scale 0 to 100 (0 no effect, 100 complete control), read-out: Plant response rating, Lambsquarters
  pest or weed control at 62 g/ha: 95%
[2]; 125 g ai/ha, scale 0 to 100 (0 no effect, 100 complete control), read-out: Plant response rating, Lambsquarters
  pest or weed control at 125 g/ha: 95%
[3]; 16 g ai/ha, scale 0 (no effect) to 100 (complete control), read-out: Plant response rating, Mustard, Wild
  pest or weed control at 16 g/ha: 15%
[3]; 31 g ai/ha, scale 0-100, read-out: Plant response rating, Mustard, Wild
  pest or weed control at 31 g/ha: 25%
[3]; 62 g ai/ha, scale 0-100, read-out: Plant response rating, Mustard, Wild
  pest or weed control at 62 g/ha: 95%
[3]; 125 g ai/ha, scale 0-100, read-out: Plant response rating, Mustard, Wild
  pest or weed control at 125 g/ha: 100%
[4]; 16 g ai/ha, scale 0-100, read-out: Plant response rating, Chickweed
  pest or weed control at 16 g/ha: 65%
[4]; 31 g ai/ha, scale 0 to 100 (0 no effect, 100 complete control), read-out: Plant response rating, Chickweed
  pest or weed control at 31 g/ha: 65%
[4]; 62 g ai/ha, scale 0 to 100 (0 no effect, 100 complete control), read-out: Plant response rating, Chickweed
  pest or weed control at 62 g/ha: 70%
[4]; 125 g ai/ha, scale 0 to 100 (0 no effect, 100 complete control), read-out: Plant response rating, Chickweed
  pest or weed control at 125 g/ha: 80%
[5]; 16 g ai/ha
  Plant response rating, Ragweed: 30
[5]; 31 g ai/ha
  Plant response rating, Ragweed: 30
[5]; 62 g ai/ha
  Plant response rating, Ragweed: 30
[5]; 125 g ai/ha
  Plant response rating, Ragweed: 70
[5]; 250 g ai/ha
  Plant response rating, Ragweed: 100
[6]; 16 g ai/ha, scale 0-100, read-out: Plant response rating, Field Poppy
  pest or weed control at 16 g/ha: 25%
[6]; 31 g ai/ha, scale 0 to 100 (0 no effect, 100 complete control), read-out: Plant response rating, Field Poppy
  pest or weed control at 31 g/ha: 40%
[6]; 62 g ai/ha, scale 0 to 100 (0 no effect, 100 complete control), read-out: Plant response rating, Field Poppy
  pest or weed control at 62 g/ha: 40%
[6]; 125 g ai/ha, scale 0 to 100 (0 no effect, 100 complete control), read-out: Plant response rating, Field Poppy
  pest or weed control at 125 g/ha: 80%
[7]; 16 g ai/ha
  pest or weed control at 16 g/ha: 65%
[7]; 31 g ai/ha
  pest or weed control at 31 g/ha: 85%
[7]; 62 g ai/ha
  pest or weed control at 62 g/ha: 100%
[7]; 125 g ai/ha
  pest or weed control at 125 g/ha: 100%
[8]; 16 g ai/ha
  Plant response rating, Guineagrass: 100
[8]; 31 g ai/ha
  Plant response rating, Guineagrass: 100
[8]; 62 g ai/ha
  Plant response rating, Guineagrass: 100
[8]; 125 g ai/ha
  Plant response rating, Guineagrass: 100
[8]; 250 g ai/ha
  Plant response rating, Guineagrass: 100
[9]; 16 g ai/ha, scale 0 (no effect) to 100 (complete control), read-out: Plant response rating, Wheat, Winter
  plant injury at 16 g/ha: 0%
[9]; 31 g ai/ha, scale 0 (no effect) to 100 (complete control), read-out: Plant response rating, Wheat, Winter
  plant injury at 31 g/ha: 0%
[9]; 125 g ai/ha, scale 0-100, read-out: Plant response rating, Wheat, Winter
  plant injury at 125 g/ha: 35%
[10]; 16 g ai/ha, scale 0 (no effect) to 100 (complete control), read-out: Plant response rating, Wheat, Spring
  plant injury at 16 g/ha: 0%
[10]; 31 g ai/ha, scale 0 (no effect) to 100 (complete control), read-out: Plant response rating, Wheat, Spring
  plant injury at 31 g/ha: 0%
[10]; 125 g ai/ha, scale 0-100, read-out: Plant response rating, Wheat, Spring
  plant injury at 125 g/ha: 55%
[11]; 16 g ai/ha, scale 0 (no effect) to 100 (complete control), read-out: Plant response rating, Bluegrass
  pest or weed control at 16 g/ha: 0%
[11]; 31 g ai/ha, scale 0-100, read-out: Plant response rating, Bluegrass
  pest or weed control at 31 g/ha: 5%
[11]; 62 g ai/ha, scale 0-100, read-out: Plant response rating, Bluegrass
  pest or weed control at 62 g/ha: 30%
[11]; 125 g ai/ha, scale 0-100, read-out: Plant response rating, Bluegrass
  pest or weed control at 125 g/ha: 70%
[12]; 16 g ai/ha, scale 0-100, read-out: Plant response rating, Pigweed
  pest or weed control at 16 g/ha: 75%
[12]; 31 g ai/ha, scale 0 to 100 (0 no effect, 100 complete control), read-out: Plant response rating, Pigweed
  pest or weed control at 31 g/ha: 95%
[12]; 62 g ai/ha, scale 0 to 100 (0 no effect, 100 complete control), read-out: Plant response rating, Pigweed
  pest or weed control at 62 g/ha: 95%
[12]; 125 g ai/ha, scale 0 to 100 (0 no effect, 100 complete control), read-out: Plant response rating, Pigweed
  pest or weed control at 125 g/ha: 95%
[13]; 16 g ai/ha
  Plant response rating, Quackgrass: 40
[13]; 31 g ai/ha
  Plant response rating, Quackgrass: 40
[13]; 62 g ai/ha
  Plant response rating, Quackgrass: 70
[13]; 125 g ai/ha
  Plant response rating, Quackgrass: 85
[13]; 250 g ai/ha
  Plant response rating, Quackgrass: 98
[14]; 16 g ai/ha, scale 0-100, read-out: Plant response rating, Windgrass
  pest or weed control at 16 g/ha: 15%
[14]; 31 g ai/ha, scale 0 to 100 (0 no effect, 100 complete control), read-out: Plant response rating, Windgrass
  pest or weed control at 31 g/ha: 25%
[14]; 62 g ai/ha, scale 0 to 100 (0 no effect, 100 complete control), read-out: Plant response rating, Windgrass
  pest or weed control at 62 g/ha: 35%
[14]; 125 g ai/ha, scale 0 to 100 (0 no effect, 100 complete control), read-out: Plant response rating, Windgrass
  pest or weed control at 125 g/ha: 35%
[15]; 16 g ai/ha
  Plant response rating, Surinam Grass: 10
[15]; 31 g ai/ha
  Plant response rating, Surinam Grass: 35
[15]; 62 g ai/ha
  Plant response rating, Surinam Grass: 70
[15]; 125 g ai/ha
  Plant response rating, Surinam Grass: 100
[15]; 250 g ai/ha
  Plant response rating, Surinam Grass: 100
[16]; 16 g ai/ha
  Plant response rating, Bermudagrass: 85
[16]; 31 g ai/ha
  Plant response rating, Bermudagrass: 100
[16]; 62 g ai/ha
  Plant response rating, Bermudagrass: 100
[16]; 125 g ai/ha
  Plant response rating, Bermudagrass: 100
[16]; 250 g ai/ha
  Plant response rating, Bermudagrass: 100
